Literature values as cited in patent US20250161335A1, “Drug and Method for Nucleoside (Acid) Drug Therapy of Limiting Chronic Hepatitis B” (Shanghai Hep Pharmaceutical Co., Ltd., priority 2022, published 2025).

Tested on: HBV
Conditions: patients treated with nucleoside (acid) medicine

C[C@H](Cn1cnc2c(N)ncnc21)OCP(=O)(O)O [tenofovir]
inhibition rate on viral DNA: about 70%
